In patent US11339165B2, “Pyrazolopyrimidines having activity against the respiratory syncytial virus (RSV)” (priority 2017, dated 2022):

Experiments:
in vitro = details: human, TOX HELA CC50 (μM)
rgRSV224 virus = assay: Antiviral activity: rgRSV224 (GFP) replication in HeLa cells; assay type: cell-based, respiratory syncytial virus (RSV); details: human respiratory syncytial virus, HeLa, 72 h, read-out: RSV HELA EC50 (μM), rgRSV224 virus (MOI=1), HeLa cells, GFP expression three days post-virus exposure

| Structure (SMILES) | CC50 at 3 days (in vitro) [µM] | EC50 (rgRSV224 virus) [µM] |
| --- | --- | --- |
| COC(=O)N[C@H]1CCN(c2ccc(-c3cc4nc(C(=O)N5CCc6ccccc6[C@H]5C)cc(C5CC5)n4n3)c(F)c2)C1 [Compound 10, Methyl N-[(3S)-1-[4-{7-cyclopropyl-5-[(1R)-1-methyl-1,2,3,4-tetrahydroisoquinoline-2-carbonyl]pyrazolo[1,5-a]pyrimidin-2-yl}-3-fluorophenyl)pyrrolidin-3-yl]carbamate] | > 100 | 0.07 |
| Cc1cc(N2CC[C@H](C(N)=O)C2)cc(F)c1-c1cc2nc(C(=O)N3CCc4ccccc4[C@H]3C)cc(C3CC3)n2n1 [Compound 89, (3S)-1-(4-{7-Cyclopropyl-5-[(1R)-1-methyl-1,2,3,4-tetrahydroisoquinoline-2-carbonyl]pyrazolo[1,5-a]pyrimidin-2-yl}-3-fluoro-5-methylphenyl)pyrrolidine-3-carboxamide] | 33.4 | 0.165 |
| C[C@@H]1c2ccccc2CCN1C(=O)c1cc(C2CC2)n2nc(-c3ccc(N4CC[C@@](C)(CC(N)=O)C4)cc3F)cc2n1 (single isomer, unassigned) [Compound 24, 2-[(3*S)-1-(4-{7-Cyclopropyl-5-[(1R)-1-methyl-1,2,3,4-tetrahydroisoquinoline-2-carbonyl]pyrazolo[1,5-a]pyrimidin-2-yl}-3-fluorophenyl)-3-methylpyrrolidin-3-yl]acetamide] | 26.4 | 0.03 |
| C[C@@H]1c2ccccc2CCN1C(=O)c1cc(C2CC2)n2nc(-c3ccc(N4CCC(C#N)C4)cc3F)cc2n1 (stereo partly drawn) [Compound 1, 1-(4-{7-Cyclopropyl-5-[(1R)-1-methyl-1,2,3,4-tetrahydroisoquinoline-2-carbonyl]-pyrazolo[1,5-a]pyrimidin-2-yl}-3-fluorophenyl)pyrrolidine-3-carbonitrile] | > 100 | 0.085 |
| C[C@@H]1c2ccccc2CCN1C(=O)c1cc(C2CC2)n2nc(-c3c(O)cc(N4CC[C@H](C(N)=O)C4)cc3F)cc2n1 [Compound 105, (S)-1-(4-(7-cyclopropyl-5-((R)-1-methyl-1,2,3,4-tetrahydroisoquinoline-2-carbonyl)pyrazolo[1,5-a]pyrimidin-2-yl)-3-fluoro-5-hydroxyphenyl)pyrrolidine-3-carboxamide] | 83.6 | 0.025 |
| CC(=O)N[C@H]1CCN(c2ccc(-c3cc4nc(C(=O)N5CCc6ccccc6[C@H]5C)cc(C5CC5)n4n3)c(F)c2)C1 [Compound 8, N-[(3S)-1-(4-{7-Cyclopropyl-5-[(1R)-1-methyl-1,2,3,4-tetrahydroisoquinoline-2-carbonyl]pyrazolo[1,5-a]pyrimidin-2-yl}-3-fluorophenyl)pyrrolidin-3-yl]acetamide] | 51.5 | 0.041 |
| C[C@@H]1c2ccccc2CCN1C(=O)c1cc(C2CC2)n2nc(-c3ccc(N4CCCC(C(N)=O)C4)cc3F)cc2n1 (stereo partly drawn) [Compound 69, 1-(4-{7-Cyclopropyl-5-[(1R)-1-methyl-1,2,3,4-tetrahydroisoquinoline-2-carbonyl]-pyrazolo[1,5-a]pyrimidin-2-yl}-3-fluorophenyl)piperidine-3-carboxamide] | 33.2 | 0.059 |
| C[C@@H]1c2ccccc2CCN1C(=O)c1cc(C2CC2)n2nc(-c3ccc(N4CC[C@H](NCC(F)(F)F)C4)cc3F)cc2n1 [Compound 94, (7-cyclopropyl-2-(2-fluoro-4-((S)-3-((2,2,2-trifluoroethyl)amino)pyrrolidin-1-yl)phenyl)pyrazolo[1,5-a]pyrimidin-5-yl)((R)-1-methyl-3,4-dihydroisoquinolin-2(1H)-yl)methanone] | > 100 | 0.19 |
| C[C@@H]1c2ccccc2CCN1C(=O)c1cc(C2CC2)n2nc(-c3ccc(N4CCC(C(N)=O)CC4)cc3F)cc2n1 [Compound 68, 1-(4-{7-Cyclopropyl-5-[(1R)-1-methyl-1,2,3,4-tetrahydroisoquinoline-2-carbonyl]-pyrazolo[1,5-a]pyrimidin-2-yl}-3-fluorophenyl)piperidine-4-carboxamide] | 26.6 | 0.058 |
| C[C@@H]1c2ccccc2CCN1C(=O)c1cc(C2CC2)n2nc(-c3ccc(N4CC[C@H](C(=O)NS(C)(=O)=O)C4)nc3F)cc2n1 [Compound 51, (3S)-1-(5-{7-Cyclopropyl-5-[(1R)-1-methyl-1,2,3,4-tetrahydroisoquinoline-2-carbonyl]-pyrazolo[1,5-a]pyrimidin-2-yl}-6-fluoropyridin-2-yl)-N-methanesulfonylpyrrolidine-3-carboxamide] | 67.9 | 0.131 |
| C[C@@H]1c2ccccc2CCN1C(=O)c1cc(C2CC2)n2nc(-c3ccc(N4CCC(S(=O)(=O)N(C)C)C4)cc3F)cc2n1 (stereo partly drawn) [Compound 22, 1-(4-{7-Cyclopropyl-5-[(1R)-1-methyl-1,2,3,4-tetrahydroisoquinoline-2-carbonyl]-pyrazolo[1,5-a]pyrimidin-2-yl}-3-fluorophenyl)-N,N-dimethylpyrrolidine-3-sulfonamide] | > 100 | 0.145 |
| CNC(=O)O[C@@H]1CCN(c2ccc(-c3cc4nc(C(=O)N5CCc6ccccc6[C@H]5C)cc(C5CC5)n4n3)c(F)c2)C1 [Compound 15, (3R)-1-(4-{7-Cyclopropyl-5-[(1R)-1-methyl-1,2,3,4-tetrahydroisoquinoline-2-carbonyl]-pyrazolo[1,5-a]pyrimidin-2-yl}-3-fluorophenyl)pyrrolidin-3-yl N-methylcarbamate] | > 100 | 0.1 |
| C[C@@H]1c2ccccc2CCN1C(=O)c1cc(C2CC2)n2nc(-c3ccc(N4CCC5(C4)CS(=O)(=O)C5)cc3F)cc2n1 [Compound 6] | > 100 | 0.098 |
| C[C@@H]1c2ccccc2CCN1C(=O)c1cc(C2CC2)n2nc(-c3ccc(N4CCC(CC(N)=O)CC4)cc3F)cc2n1 [Compound 70, 2-[1-(4-{7-Cyclopropyl-5-[(1R)-1-methyl-1,2,3,4-tetrahydroisoquinoline-2-carbonyl]-pyrazolo[1,5-a]pyrimidin-2-yl}-3-fluorophenyl)piperidin-4-yl] acetamide] | 28.2 | 0.104 |
| C[C@@H]1c2ccccc2CCN1C(=O)c1cc(C2CC2)n2nc(-c3ccc(N4CC[C@H](c5nnn[nH]5)C4)cc3F)cc2n1 [Compound 3, (1R)-2-(7-Cyclopropyl-2-{2-fluoro-4-[(3S)-3-(1H-1,2,3,4-tetrazol-5-yl)pyrrolidin-1-yl]phenyl}pyrazolo[1,5-a]pyrimidine-5-carbonyl)-1-methyl-1,2,3,4-tetrahydroisoquinoline] | 43 | 0.063 |
| C[C@@H]1c2ccccc2CCN1C(=O)c1cc(C2CC2)n2nc(-c3ccc(N4C[C@H](C)[C@@H](O)C4)cc3F)cc2n1 (stereo in doubt) [Compound 99, (7-cyclopropyl-2-(2-fluoro-4-((trans)-3-hydroxy-4-methylpyrrolidin-1-yl)phenyl)pyrazolo[1,5-a]pyrimidin-5-yl)((R)-1-methyl-3,4-dihydroisoquinolin-2(1H)-yl)methanone] | > 100 | 0.092 |
| C[C@@H]1c2ccccc2CCN1C(=O)c1cc(C2CC2)n2nc(-c3ccc(N4CC[C@@H](OC(N)=O)C4)cc3F)cc2n1 [Compound 77, (3R)-1-(4-{7-Cyclopropyl-5-[(1R)-1-methyl-1,2,3,4-tetrahydroisoquinoline-2-carbonyl]pyrazolo[1,5-a]pyrimidin-2-yl}-3-fluorophenyl)pyrrolidin-3-yl carbamate] | > 100 | 0.082 |
| C[C@@H]1c2ccsc2CCN1C(=O)c1cc(C2CC2)n2nc(-c3ccc(N4CC[C@H](C(=O)NS(C)(=O)=O)C4)cc3F)cc2n1 (single isomer, unassigned) [Compound 41, (3S)-1-(4-{7-Cyclopropyl-5-[(4*R)-4-methyl-4,5,6,7-tetrahydro-thieno[3,2-c]pyridine-5-carbonyl]pyrazolo[1,5-a]pyrimidin-2-yl}-3-fluorophenyl)-N-methanesulfonylpyrrolidine-3-carboxamide] | 51.1 | 0.036 |
| CNC(=O)C1CCCN(c2ccc(-c3cc4nc(C(=O)N5CCc6ccccc6[C@H]5C)cc(C5CC5)n4n3)c(F)c2)C1 (stereo partly drawn) [Compound 73, 1-(4-{7-Cyclopropyl-5-[(1R)-1-methyl-1,2,3,4-tetrahydroisoquinoline-2-carbonyl]-pyrazolo[1,5-a]pyrimidin-2-yl}-3-fluorophenyl)-N-methylpiperidine-3-carboxamide] | > 100 | 0.101 |
| C[C@@H]1c2ccccc2CCN1C(=O)c1cc(C2CC2)n2nc(-c3ccc(N4CC[C@@H](C(C)(C)C(N)=O)C4)cc3F)cc2n1 (single isomer, unassigned) [Compound 28, 2-[(3*S)-1-(4-{7-Cyclopropyl-5-[(1R)-1-methyl-1,2,3,4-tetrahydroisoquinoline-2-carbonyl]pyrazolo[1,5-a]pyrimidin-2-yl}-3-fluorophenyl)pyrrolidin-3-yl]-2-methylpropanamide] | 32.2 | 0.072 |
| C[C@@H]1c2ccccc2CCN1C(=O)c1cc(C2CC2)n2nc(-c3c(F)cc(N4CC[C@H](C(N)=O)C4)cc3OCCO)cc2n1 [Compound 106, (S)-1-(4-(7-cyclopropyl-5-((R)-1-methyl-1,2,3,4-tetrahydroisoquinoline-2-carbonyl)pyrazolo[1,5-a]pyrimidin-2-yl)-3-fluoro-5-(2-hydroxyethoxy)phenyl)pyrrolidine-3-carboxamide] | 21 | 0.089 |
| C[C@@H]1c2ccccc2CCN1C(=O)c1cc(C2CC2)n2nc(-c3ccc(N4CC[C@@H](OC(N)=O)C4)nc3F)cc2n1 [Compound 85, (3R)-1-(5-{7-Cyclopropyl-5-[(1R)-1-methyl-1,2,3,4-tetrahydroisoquinoline-2-carbonyl]-pyrazolo[1,5-a]pyrimidin-2-yl}-6-fluoropyridin-2-yl)pyrrolidin-3-yl carbamate] | > 100 | 0.152 |
| C[C@@H]1c2ccccc2CCN1C(=O)c1cc(C2CC2)n2nc(-c3ccc(N4CC[C@H](O)C4)cc3F)cc2n1 [Compound 14, (3S)-1-(4-{7-Cyclopropyl-5-[(1R)-1-methyl-1,2,3,4-tetrahydroisoquinoline-2-carbonyl]-pyrazolo[1,5-a]pyrimidin-2-yl}-3-fluorophenyl)pyrrolidin-3-ol] | 81.2 | 0.039 |
